ChEMBL document CHEMBL4613222 (Bioorg Med Chem, 2020)
The source made the active and inactive calls. The rule behind the calls is not given here.

How the values were obtained:
[1] = tested on: HCT-116; experiment: Antiproliferative activity against human HCT116 cells assessed as reduction in cell viability after 48 hrs by MTT assay; format: functional, cell-based; details: HCT-116, 48 h
[2] = tested on: HCT-116; experiment: Effect on CCND1 gene expression in human HCT116 cells at 9.5 uM in presence of 2 Gy irradiation by RT-PCR analysis; format: functional, cell-based
[3] = tested on: HCT-116; experiment: Radiosensitizer activity in human HCT116 cells assessed as reduction in cell survival at 4.75 uM incubated for 48 hrs under 2 to 6 Gy irradiation and measured after 7 days by crystal violet staining based by clonogenic assay; format: functional
[4] = tested on: HCT-116; experiment: Down regulation of CCND1 gene expression in human HCT116 cells at 9.5 uM in presence of 2 Gy irradiation by RT-PCR analysis; format: functional, cell-based
[5] = tested on: HCT-116; experiment: Down regulation of NFKappaB1 gene expression in human HCT116 cells at 9.5 uM by RT-PCR analysis relative to control; format: functional
[6] = tested on: HCT-116; experiment: Down regulation of NFKappaB1 gene expression in human HCT116 cells at 35 uM under 2 Gy irradiation by RT-PCR analysis; format: functional, cell-based

IC50 [1]: 19 µM
Compound: C[C@H]1[C@H](C)CC[C@]2(C(=O)O)CC[C@]3(C)C(=CC[C@@H]4[C@@]5(C)CC[C@H](O)C(C)(C)[C@@H]5CC[C@]43C)[C@H]12 [URSOLIC ACID]
Activity [2]: inactive
Activity [3]: Active
Activity [4]: Active
fold change (FC) [5]: -7.05
Activity [6]: Active
